The values that follow come from US20240360146A1, “BRUTON'S TYROSINE KINASE AND MUTANT DEGRADER, COMPOSITION AND APPLICATION THEREOF” (HANGZHOU HEALZEN THERAPEUTICS CO., LTD., priority 2021, published 2024).

Each structure is given as a SMILES string.

T1 sequence (Q06187 whole entry): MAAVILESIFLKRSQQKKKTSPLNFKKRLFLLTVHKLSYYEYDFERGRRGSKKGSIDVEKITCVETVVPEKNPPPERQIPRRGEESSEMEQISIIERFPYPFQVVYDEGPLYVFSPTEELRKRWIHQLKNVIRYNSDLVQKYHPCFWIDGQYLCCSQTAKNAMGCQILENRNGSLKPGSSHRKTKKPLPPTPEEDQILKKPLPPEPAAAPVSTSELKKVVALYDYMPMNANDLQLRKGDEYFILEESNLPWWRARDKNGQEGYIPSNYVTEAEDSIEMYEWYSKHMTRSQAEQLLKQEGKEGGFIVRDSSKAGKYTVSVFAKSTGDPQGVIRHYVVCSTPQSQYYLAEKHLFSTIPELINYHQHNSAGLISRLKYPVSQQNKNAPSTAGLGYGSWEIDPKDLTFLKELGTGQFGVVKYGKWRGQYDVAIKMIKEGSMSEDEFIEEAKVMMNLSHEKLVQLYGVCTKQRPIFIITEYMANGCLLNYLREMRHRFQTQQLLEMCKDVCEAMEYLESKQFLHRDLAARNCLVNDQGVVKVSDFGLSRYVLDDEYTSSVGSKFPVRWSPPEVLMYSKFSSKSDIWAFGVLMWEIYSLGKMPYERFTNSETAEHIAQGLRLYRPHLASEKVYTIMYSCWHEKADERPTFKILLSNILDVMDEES

The assay concerns the target T1, BTK (Homo sapiens, UniProt Q06187).
T1 construct: endogenous in cells; host or cells: Mino cells
The assay can be described thus: BTK degradation activity test in Mino cells. It counts as cell-based. The settings on record: 16 h incubation, Western blot or Elisa. The procedure, abridged: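 DC50 derived by curve fitting of BTK degradation rates versus untreated control across compound concentrations. Mino cells were exposed for 16 h; BTK levels in lysates, normalised via BCA protein, measured by Western blot or ELISA.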
For `CC(C)N1CCN(C2CC3CC2N(c2cnc(C(N)=O)c(Nc4ccc(C5CCN(C6CN(c7ccc8c(c7)C(=O)N(C7CCC(=O)NC7=O)C8=O)C6)CC5)cc4)n2)C3)C1=O` (centres unmarked) [Compound 047, 3-((4-(1-(1-(2-(2,6-dioxopiperidin-3-yl)-1,3-dioxoisoindolin-5-yl)azetidin-3-yl)piperidin-4-yl)phenyl)amino)-5-(-6-(3-isopropyl-2-oxoimidazolin-1-yl)-2-azabicyclo[2.2.1]heptan-2-yl)pyrazin-2-carboxamide], the DC50 was below 1 nM.
`CN1CCN(C2CCCN(c3nnc(C(N)=O)c(Nc4ccc5c(c4)CCN(CC4CCN(c6ccc7c(c6)C(=O)N(C6CCC(=O)NC6=O)C7=O)CC4)C5)n3)C2)C1=O` (centres unmarked) [Compound 081, 5-((2-((1-(2-(2,6-dioxopiperidin-3-yl)-1,3-dioxoisoindol-5-yl)piperidin-4-yl)methyl)-1,2,3,4-tetrahydroisoquinolin-6-yl)amino)-3-(3-(3-methyl-2-oxoimidazolin-1-yl)piperidin-1-yl)-1,2,4-triazin-6-carboxamide] yielded a 50% degradation concentration (DC50) below 1 nM.
Then `CC1(c2ccc(Nc3nc(N4CCCC(N5CCN(C6COC6)C5=O)C4)cnc3C(N)=O)cc2)CCN(C2CCN(c3ccc4c(c3)CN(C3CCC(=O)NC3=O)C4=O)CC2)CC1` (centres unmarked) [Compound 013, 3-((4-(1′-(2-(2,6-dioxopiperidin-3-yl)-1-oxoisoindol-5-yl)-4-methyl-[1,4′-bipiperidin]-4-yl)phenyl)amino)-5-(3-(3-(oxetan-3-yl)-2-oxoimidazolin-1-yl)piperidin-1-yl)pyrazin-2-carboxamide], with below 1 nM.
`CN1CCN([C@@H]2CCCN(c3nnc(C(N)=O)c(Nc4ccc(N5CCN(CC6CCN(c7ccc(N8CCC(=O)NC8=O)cc7P(C)(C)=O)CC6)CC5)c(F)c4)n3)C2)C1=O` [Compound 198, (R)-5-((4-(4-((1-(2-(dimethylphosphoryl)-4-(2,4-dioxotetrahydropyrimidin-1(2H)-yl)phenyl)piperidin-4-yl)methyl)piperazin-1-yl)-3-fluorophenyl)amino)-3-(3-(3-methyl-2-oxoimidazolidin-1-yl)piperidin-1-yl)-1,2,4-triazin-6-carboxamide] had a 50% degradation concentration (DC50) below 1 nM.
Compound `CN1CCN(C2CC3CC2N(c2nnc(C(N)=O)c(Nc4ccc(N5CCC(N6CCN(CC#Cc7ccc8c(c7)CN(C7CCC(=O)NC7=O)C8=O)CC6)CC5)cc4)n2)C3)C1=O` (centres unmarked) [Compound 110] gave a 50% degradation concentration (DC50) below 1 nM.
The result for `CN1CCN(C2CC3CC2N(c2cnc(C(N)=O)c(Nc4ccc(C5CCN(C6CN(c7ccc8c(c7)C(=O)N(C7CCC(=O)NC7=O)C8=O)C6)CC5)cc4)n2)C3)C1=O` (centres unmarked) [Compound 046, 3-((4-(1-(1-(2-(2,6-dioxopiperidin-3-yl)-1,3-dioxoisoindolin-5-yl)azetidin-3-yl)piperidin-4-yl)phenyl)amino)-5-(-6-(3-methyl-2-oxoimidazolin-1-yl)-2-azabicyclo[2.2.1]heptan-2-yl)pyrazin-2-carboxamide] reads below 1 nM; that for `CN1CCN(C2CCCN(c3nnc(C(N)=O)c(Nc4ccc(N5CCC(N6CCN(CC#Cc7ccc8c(c7)CN(C7CCC(=O)NC7=O)C8=O)CC6)CC5)cc4)n3)C2)C1=O` (centres unmarked) [Compound 084], below 1 nM; that for `CN1CCN(C2CCCN(c3nnc(C(N)=O)c(Nc4ccc(C5(C)CCN(CC6CCN(c7ccc8c(c7)C(=O)N(C7CCC(=O)NC7=O)C8=O)C6)CC5)cc4)n3)C2)C1=O` (centres unmarked) [Compound 035, 5-((4-(1-((1-(2-(2,6-dioxopiperidin-3-yl)-1,3-dioxoisoindolin-5-yl)pyrrolidin-3-yl)methyl)-4-methylpiperidin-4-yl)phenyl)amino)-3-(3-(3-methyl-2-oxoimidazolin-1-yl)piperidin-1-yl)-1,2,4-triazin-6-carboxamide], below 1 nM.
On to `CN1C(=O)N(C2CCCN(c3cnc(C(N)=O)c(Nc4ccc(C5CCN(CC6CCN(c7ccc8c(c7)C(=O)N(C7CCC(=O)NC7=O)C8=O)C6)CC5)cc4)n3)C2)CC12CC2` (centres unmarked) [Compound 044, 3-((4-(1-((1-(2-(2,6-dioxopiperidin-3-yl)-1,3-dioxoisoindolin-5-yl)pyrrolidin-3-yl)methyl)piperidin-4-yl)phenyl)amino)-5-(3-(4-methyl-5-oxo-4,6-diazaspiro[2.4]cycloheptan-6-yl)piperidin-1-yl)pyrazin-2-carboxamide], for which the DC50 was below 1 nM.
The result for `CN1CCN([C@@H]2CCCN(c3nnc(C(N)=O)c(Nc4ccc(N5CCN(CC6CCN(c7ccc(C(=O)NC8CCC(=O)NC8=O)c8[nH]cnc78)C6)CC5)c(F)c4)n3)C2)C1=O` (stereo partly drawn) [Compound 178, 4-(3-((4-(4-((6-carbamoyl-3-((R)-3-(3-methyl-2-oxoimidazolidin-1-yl)piperidin-1-yl)-1,2,4-triazin-5-yl)amino)-2-fluorophenyl)piperazin-1-yl)methyl)pyrrolidin-1-yl)-N-(2,6-dioxopiperidin-3-yl)-1Hbenzimidazol-7-carboxamide] reads below 1 nM; that for `CN1CCN([C@@H]2CCCN(c3nnc(C(N)=O)c(Nc4ccc(N5CCN(CC6CCN(c7ccc(NC8CCC(=O)NC8=O)cc7F)CC6)CC5)c(F)c4)n3)C2)C1=O` (some centres unmarked) [Compound 251], below 1 nM.
The result for `NC(=O)c1ncc(N2CCCC(N3CCN(C4CCCC4)C3=O)C2)nc1Nc1ccc(N2CCC(C#CCN3CCN(c4ccc5c(c4)C(=O)N(C4CCC(=O)NC4=O)C5=O)CC3)CC2)cc1` (centres unmarked) [Compound 029, 5-(3-(3-cyclopentyl-2-oxoimidazolin-1-yl)piperidin-1-yl)-3-((4-(4-(3-(4-(2-(2,6-dioxopiperidin-3-yl)-1,3-dioxoisoindolin-5-yl)piperazin-1-yl)propan-1-yne-1-yl)piperidin-1-yl)phenyl)amino)pyrazin-2-carboxamide] reads below 1 nM.
Then `CN1CCN([C@@H]2CCCN(c3nnc(C(N)=O)c(Nc4ccc(C5CCN(C[C@@H]6CCN(c7ccc8c(c7)C(=O)N(C7CCC(=O)NC7=O)C8=O)C6)CC5)c(F)c4)n3)C2)C1=O` (stereo partly drawn) [Compound 157, 5-((4-(1-(((3S)-1-(2-(2,6-dioxopiperidin-3-yl)-1,3-dioxoisoindolin-5-yl)pyrrolidin-3-yl)methyl)piperidin-4-yl)-3-fluorophenyl)amino)-3-((R)-3-(3-methyl-2-oxoimidazolin-1-yl)piperidin-1-yl)-1,2,4-triazin-6-carboxamide], with below 1 nM; and `CC1(c2ccc(Nc3nc(N4CCCC(N5CCN(c6ccccc6)C5=O)C4)nnc3C(N)=O)cc2)CCN(C2CCN(c3ccc4c(c3)C(=O)N(C3CCC(=O)NC3=O)C4=O)CC2)CC1` (centres unmarked) [Compound 091, 5-((4-(1′-(2-(2,6-dioxopiperidin-3-yl)-1,3-dioxoisoindol-5-yl)-4-methyl-[1,4′-bipiperidin]-4-yl)phenyl)amino)-3-(3-(2-oxo-3-phenylimidazolin-1-yl)piperidin-1-yl)-1,2,4-triazin-6-carboxamide], with above 1 nM.
The compound `Cc1cc(N2CCC(CN3CCC(c4ccc(Nc5nc(N6CCC[C@@H](N7CCN(C)C7=O)C6)nnc5C(N)=O)c(CO)c4)CC3)CC2)ccc1N1CCC(=O)NC1=O` [Compound 238, (R)-5-((4-(1-((1-(4-(2,4-dioxotetrahydropyrimidin-1(2H)-yl)-3-methylphenyl)piperidin-4-yl)methyl)piperidin-4-yl)-2-(hydroxymethyl)phenyl)amino)-3-(3-(3-methyl-2-oxoimidazolidin-1-yl)piperidin-1-yl)-1,2,4-triazin-6-carboxamide] had a DC50 below 1 nM.
Then `CN1C(=O)N(C2CCCN(c3cnc(C(N)=O)c(Nc4ccc(C5(C)CCN(C6CN(c7ccc8c(c7)C(=O)N(C7CCC(=O)NC7=O)C8=O)C6)CC5)cc4)n3)C2)C2CCCC21` (centres unmarked) [Compound 008, 3-((4-(1-(1-(2-(2,6-dioxopiperidin-3-yl)-1,3-dioxoisoindol-5-yl)azetidin-3-yl)-4-methylpiperidin-4-yl)phenyl)amino)-5-(3-(3-methyl-2-oxohexahydrocyclopenta[d]imidazol-1(2H)-yl)piperidin-1-yl)pyrazin-2-carboxamide], with below 1 nM; and `NC(=O)c1nnc(N2CCCC(N3CCN(c4ccccc4)C3=O)C2)nc1Nc1ccc(C2CCN(CC3CCN(c4ccc5c(c4)C(=O)N(C4CCC(=O)NC4=O)C5)CC3)CC2)cc1` (centres unmarked) [Compound 099, 5-((4-(1-((1-(2-(2,6-dioxopiperidin-3-yl)-3-oxoisoindol-5-yl)piperidin-4-yl)methyl)piperidin-4-yl)phenyl)amino)-3-(3-(2-oxo-3-phenylimidazolin-1-yl)piperidin-1-yl)-1,2,4-triazin-6-carboxamide], with below 1 nM.
Then `CN1CCN(C2CCCN(c3nnc(C(N)=O)c(Nc4ccc(C5CCN(CC6CCN(c7ccc8c(c7)C(=O)N(C7CCC(=O)NC7=O)C8=O)C6)CC5)cc4)n3)C2)C1=O` (centres unmarked) [Compound 076, 5-((4-(1-((1-(2-(2,6-dioxopiperidin-3-yl)-1,3-dioxoisooctyl-5-yl)pyrrolidin-3-yl)methyl)piperidin-4-yl)phenyl)amino)-3-(3-(3-methyl-2-oxoimidazolin-1-yl)piperidin-1-yl)-1,2,4-triazin-6-carboxamide], with below 1 nM; and `CN1CCN([C@@H]2CCCN(c3nnc(C(N)=O)c(Nc4cc(F)c5c(c4)CCN(CC4CCN(c6ccc7c(c6)C(=O)N(C6CCC(=O)NC6=O)C7=O)CC4)CC5)n3)C2)C1=O` (stereo partly drawn) [Compound 231, 5-((3-((1-(2-(2,6-dioxopiperidin-3-yl)-1,3-dioxoisoindolin-5-yl)piperidin-4-yl)methyl)-9-fluoro-2,3,4,5-tetrahydro-1H-benzo[d]azepin-7-yl)amino)-3-((R)-3-(3-methyl-2-oxoimidazolidin-1-yl)piperidin-1-yl)-1,2,4-triazin-6-carboxamide], with below 1 nM.
With `CN1CCN([C@@H]2CCCN(c3nnc(C(N)=O)c(Nc4ccc(N5CCN(CC6CCN(c7ccn8c(C9CCC(=O)NC9=O)cnc8c7)CC6)CC5)c(F)c4)n3)C2)C1=O` (stereo partly drawn) [Compound 244, 5-((4-(4-((1-(3-(2,6-dioxopiperidin-3-yl)imidazo[1,2-a]pyridin-7-yl)piperidin-4-yl)methyl)piperazin-1-yl)-3-fluorophenyl)amino)-3-((R)-3-(3-methyl-2-oxoimidazolidin-1-yl)piperidin-1-yl)-1,2,4-triazin-6-carboxamide], the 50% degradation concentration (DC50) was below 1 nM.
